Key:
Assay type in all cases: functional
A-375 = test: Cytotoxicity against vemurafenib-sensitive human A375 cells assessed as cell viability at 10 uM after 48 hrs by trypan blue exclusion assay relative to control; settings: A-375, 48 h, read-out: Activity
[1] = Cytotoxicity against vemurafenib-resistant human A375 RIV cells assessed as cell viability at 10 uM after 48 hrs by trypan blue exclusion assay relative to control; settings: A-375, 48 h, read-out: Activity
BXPC-3 = test: Cytotoxicity against gemcitabine-sensitive human BxPC3 cells assessed as cell viability at 10 uM after 48 hrs by trypan blue exclusion assay relative to control; settings: BXPC-3, 48 h, read-out: Activity
MIA PaCa-2 = test: Cytotoxicity against gemcitabine-resistant human MIAPaCa2 cells assessed as cell viability at 10 uM after 48 hrs by trypan blue exclusion assay relative to control; settings: MIA PaCa-2, 48 h, read-out: Activity
K562 [2] = test: Cytotoxicity against imatinib-sensitive human K562 cells assessed as cell viability at 10 uM after 48 hrs by trypan blue exclusion assay relative to control; settings: K562, 48 h, read-out: Activity
K562 [3] = test: Cytotoxicity against imatinib-resistant human K562 cells assessed as cell viability at 10 uM after 48 hrs by trypan blue exclusion assay relative to control; settings: K562, 48 h, read-out: Activity
[4] = Cytotoxicity against vemurafenib-resistant human A375 R5C3 cells assessed as cell viability at 10 uM after 48 hrs by trypan blue exclusion assay relative to control; settings: A-375, 48 h, read-out: Activity

CC(=O)Nc1nc(-c2cccc(NS(=O)(=O)c3cc4ccccc4s3)c2)cs1
viability at 10 µM (A-375): 29.2%

CC(=O)Nc1nc(-c2cccc(NS(=O)(=O)c3ccc4c(c3)CCC4)c2)cs1
viability at 10 µM (A-375): 26.3%

CCCCC#Cc1ccc(S(=O)(=O)Nc2cccc(-c3csc(NC(C)=O)n3)c2)cc1
viability at 10 µM (A-375): < 1% | viability at 10 µM [1]: 10% | viability at 10 µM (BXPC-3): < 1% | viability at 10 µM (MIA PaCa-2): < 1% | viability at 10 µM (K562 [2]): 26.9% | viability at 10 µM (K562 [3]): 35.1% | viability at 10 µM [4]: 7.8%

CCc1ccc(S(=O)(=O)Nc2cccc(-c3csc(NC(C)=O)n3)c2)cc1
viability at 10 µM (A-375): 7.5% | viability at 10 µM [1]: 26.7% | viability at 10 µM (BXPC-3): 21% | viability at 10 µM (MIA PaCa-2): 40.7% | viability at 10 µM (K562 [2]): 12.8% | viability at 10 µM (K562 [3]): 27% | viability at 10 µM [4]: 80.1%

CC(=O)Nc1nc(-c2cccc(NS(=O)(=O)c3ccc4oc(=O)ccc4c3)c2)cs1
viability at 10 µM (A-375): 65.5%

CC(=O)Nc1nc(-c2cccc(NS(=O)(=O)c3ccc(C)s3)c2)cs1
viability at 10 µM (A-375): 37.5%

CC(=O)Nc1nc(-c2cccc(NS(=O)(=O)c3ccc(-c4ccc(C)cc4)cc3)c2)cs1
viability at 10 µM (A-375): 26.3%

CC(=O)Nc1nc(-c2cccc(NS(=O)(=O)c3ccc4c(c3)OCCO4)c2)cs1
viability at 10 µM (A-375): 29.6%

CC(=O)Nc1nc(-c2cccc(NS(=O)(=O)c3c[nH]cn3)c2)cs1
viability at 10 µM (A-375): 45.7%

CC(=O)Nc1nc(-c2cccc(NS(=O)(=O)c3cccc4ccccc34)c2)cs1
viability at 10 µM (A-375): 20.4%

CC(=O)Nc1nc(-c2cccc(NS(=O)(=O)c3cccs3)c2)cs1
viability at 10 µM (A-375): 29.6%

CC(=O)Nc1nc(-c2cccc(NS(=O)(=O)c3cccc4c3ccn4C)c2)cs1
viability at 10 µM (A-375): 60.7%

CC(=O)Nc1nc(-c2cccc(N)c2)cs1
viability at 10 µM (A-375): 38.4%

CC(=O)Nc1nc(-c2cccc(NS(=O)(=O)c3cccc4cccnc34)c2)cs1
viability at 10 µM (A-375): 59.5%

CCCCCCCC(=O)Nc1cccc(-c2csc(NC(C)=O)n2)c1
viability at 10 µM (A-375): 40%

CC(=O)Nc1nc(-c2cccc(NS(=O)(=O)c3cn(C)cn3)c2)cs1
viability at 10 µM (A-375): 36.8%

CC(=O)Nc1nc(-c2cccc(NS(=O)(=O)c3ccc4c(ccn4C)c3)c2)cs1
viability at 10 µM (A-375): 46.5%

CC(=O)Nc1nc(-c2cccc(NS(=O)(=O)c3sc(C)nc3C)c2)cs1
viability at 10 µM (A-375): 29.2%

CC(=O)Nc1nc(-c2cccc(NS(=O)(=O)c3ccc4ccccc4c3)c2)cs1
viability at 10 µM (A-375): 3.3% | viability at 10 µM [1]: 33.3% | viability at 10 µM (BXPC-3): 0.6% | viability at 10 µM (MIA PaCa-2): 7% | viability at 10 µM (K562 [2]): 31% | viability at 10 µM (K562 [3]): 25.6% | viability at 10 µM [4]: 49.6%

CC(=O)Nc1nc(-c2cccc(NS(=O)(=O)c3ccc(-c4ccccc4)cc3)c2)cs1
viability at 10 µM (A-375): 33.9%

CC(=O)Nc1nc(-c2cccc(NC(=O)c3ccco3)c2)cs1
viability at 10 µM (A-375): 29.2%

CCCCc1ccc(S(=O)(=O)Nc2cccc(-c3csc(NC(C)=O)n3)c2)cc1
viability at 10 µM (A-375): 2.2% | viability at 10 µM [1]: 26.7% | viability at 10 µM (BXPC-3): 4.3% | viability at 10 µM (MIA PaCa-2): < 1% | viability at 10 µM (K562 [2]): 51.6% | viability at 10 µM (K562 [3]): 60.9% | viability at 10 µM [4]: 9.9%

CC(=O)Nc1nc(-c2cccc(NS(=O)(=O)c3ccc(C)cc3)c2)cs1
viability at 10 µM (A-375): 19.8% | viability at 10 µM [1]: 53.3% | viability at 10 µM (BXPC-3): 21.6% | viability at 10 µM (MIA PaCa-2): 49.1% | viability at 10 µM (K562 [2]): 15.3% | viability at 10 µM (K562 [3]): 38.5% | viability at 10 µM [4]: 75.9%

CC(=O)Nc1nc(-c2cccc([N+](=O)[O-])c2)cs1
viability at 10 µM (A-375): 47.3%

CC(=O)Nc1nc(-c2cccc(NS(=O)(=O)c3ccc(I)cc3)c2)cs1
viability at 10 µM (A-375): < 1% | viability at 10 µM [1]: 10% | viability at 10 µM (BXPC-3): < 1% | viability at 10 µM (MIA PaCa-2): 15.8% | viability at 10 µM (K562 [2]): 15% | viability at 10 µM (K562 [3]): 27% | viability at 10 µM [4]: 8.4%

CC(=O)Nc1nc(-c2cccc(NS(=O)(=O)c3ccccc3)c2)cs1
viability at 10 µM (A-375): 72.2%

CC(=O)Nc1nc(-c2cccc(NS(=O)(=O)c3cccc(C)c3)c2)cs1
viability at 10 µM (A-375): 51.2%
